The values that follow come from ChEMBL document CHEMBL1201862, “PubChem BioAssay data set” (2004).

One may read the GI50 as the concentration giving 50% growth inhibition.

Some test systems named below: IGROV-1; SF-539; UACC-257; SF-268; SNB-75; K562; CAKI-1; SF-295; UACC-62; SK-MEL-5; KM12; DMS-114; HCT-15; HOP-62; OVCAR-3; RXF 393; MDA-MB-231; HOP-92; PC-3; Hs-578T.
Holding throughout (experiment): DTP human tumour cell line panel, 48 h

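Results reflect a 48-hour exposure of cells in 96-well plates to compound at five concentrations. Here, GI50 denotes the concentration required for 50% inhibition of growth.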 Activity calls are given as the source filed them. No stated cut-off is given here; in the data, active = GI50 up to about 1.1 µM and inactive = higher. A value given as a limit tells only on which side of the number the result lay.

Regarding `CCOC(=O)C1=C(C)N(NC(=O)OC)C2(N)N(NC(=O)OC)C(C)=C(C(=O)OCC)C12C#N` (centres undefined), the GI50 in the experiment with IGROV-1, in the experiment on SF-539, in the experiment on UACC-257, with SF-268, with SNB-75 and in the experiment on K562 was > 100 µM (inactive) in each case. Further, the GI50 in the experiment with CAKI-1, in the experiment on SF-295, in the experiment with UACC-62, in the experiment with SK-MEL-5, in the experiment on KM12 and in the experiment on DMS-114 was > 100 µM (inactive) each time. Also, the figures for the GI50 in the experiment with HCT-15, with HOP-62 and with OVCAR-3 were more than 100 µM, > 100 µM (inactive) and > 100 µM (inactive), respectively.
Turning to `C=CCC12CC(=O)CCC1CC(=O)C2` (centres undefined), the GI50 in the experiment with IGROV-1, with SF-539, in the experiment on UACC-257, in the experiment with SF-268, in the experiment with RXF 393 and in the experiment with SNB-75 was > 100 µM (inactive) each time. Moreover, the GI50 in the experiment with K562, with CAKI-1, in the experiment on UACC-62, in the experiment with SK-MEL-5, in the experiment on KM12 and in the experiment on DMS-114 was > 100 µM (inactive) each time. Also, the concentration for 50% growth inhibition (GI50) in the experiment on HCT-15 is more than 100 µM; in the experiment on HOP-62 it was > 100 µM (inactive); with OVCAR-3, > 100 µM (inactive).
Regarding `O=C(c1ccccc1)c1ccc2cccc(OC3OC(CO)C(O)C(O)C3O)c2n1` (centres undefined), the GI50 in the experiment with IGROV-1 is > 100 µM (inactive); in the experiment with SF-539 it was > 100 µM (inactive); in the experiment with UACC-257, 54.7 µM (inactive); in the experiment with SF-268, > 100 µM (inactive); in the experiment on RXF 393, > 100 µM (inactive); in the experiment on SNB-75 it was 68.4 µM (inactive). Moreover, the GI50 was > 100 µM (inactive) with K562; > 100 µM (inactive) with CAKI-1; 51.5 µM (inactive) in the experiment on SF-295; > 100 µM (inactive) in the experiment on UACC-62; > 100 µM (inactive) with SK-MEL-5; > 100 µM (inactive) in the experiment on KM12. For the same compound, the GI50 was > 100 µM (inactive) in the experiment with DMS-114, more than 100 µM with HCT-15, > 100 µM (inactive) in the experiment with HOP-62 and 45.2 µM (inactive) in the experiment with OVCAR-3.
As to `O=C(/C=C/C1C(=O)NC(=O)NC1=O)CC(=O)C(=O)Nc1cc(Cl)c(Cl)cc1Cl`, the GI50 with IGROV-1, in the experiment with SF-539, in the experiment on UACC-257, in the experiment on SF-268, in the experiment with RXF 393 and with SNB-75 was > 100 µM (inactive) in each case. In addition, the GI50 with K562, in the experiment on CAKI-1, in the experiment with SF-295, in the experiment with UACC-62, with SK-MEL-5 and in the experiment with KM12 was > 100 µM (inactive) throughout. For the same compound, the GI50 in the experiment on DMS-114 is > 100 µM (inactive); with HCT-15 it was more than 100 µM; in the experiment on HOP-62, > 100 µM (inactive); with OVCAR-3, > 100 µM (inactive).
As for `Cc1ccc(C2C(Cl)C(=O)N2n2cnc3ccccc3c2=O)cc1` (centres undefined), the GI50 in the experiment on IGROV-1 was > 100 µM (inactive); in the experiment on UACC-257 it was 42 µM (inactive); in the experiment on SF-268 it was > 100 µM (inactive); with RXF 393 it was > 100 µM (inactive); in the experiment with SNB-75, 91.6 µM (inactive); with K562, 52.2 µM (inactive). In addition, the GI50 is > 100 µM (inactive) in the experiment with CAKI-1; > 100 µM (inactive) in the experiment on SF-295; 99.8 µM (inactive) with UACC-62; 82.2 µM (inactive) with SK-MEL-5; > 100 µM (inactive) in the experiment with KM12; > 100 µM (inactive) in the experiment with DMS-114. The concentration for 50% growth inhibition (GI50) in the experiment on HCT-15 is more than 100 µM; with HOP-62, > 100 µM (inactive); in the experiment on OVCAR-3 it was 81.1 µM (inactive).
As to `N#Cc1cc2cc3c4c(c2oc1=O)CCCN4CCC3`, the GI50 with IGROV-1 is > 100 µM (inactive); in the experiment with SF-539, > 100 µM (inactive); in the experiment on UACC-257, > 100 µM (inactive); in the experiment on SF-268 it was > 100 µM (inactive); in the experiment with RXF 393, > 100 µM (inactive); with SNB-75, > 76.4 µM (inactive). For the same compound, the GI50 with MDA-MB-231, in the experiment on K562, in the experiment with CAKI-1, in the experiment with HOP-92, in the experiment with SF-295 and in the experiment on UACC-62 was > 100 µM (inactive) in each case. For the same compound, the GI50 in the experiment with SK-MEL-5 was > 100 µM (inactive); with KM12 it was > 100 µM (inactive); in the experiment with PC-3 it was > 100 µM (inactive); in the experiment on HCT-15, more than 100 µM; in the experiment with HOP-62, > 100 µM (inactive); in the experiment on Hs-578T, > 100 µM (inactive). Besides, the GI50 in the experiment on OVCAR-3 was > 100 µM (inactive).
Turning to `CCN1C(C)=NC2C(=O)c3ccccc3C(=O)C21` (centres undefined), the GI50 in the experiment with IGROV-1 was 38.1 µM (inactive); in the experiment with SF-539, 40.3 µM (inactive); in the experiment with UACC-257, 31.2 µM (inactive); in the experiment on SF-268 it was 57.7 µM (inactive); with RXF 393, > 100 µM (inactive); in the experiment on SNB-75, 37.8 µM (inactive). The GI50 is 78.9 µM (inactive) in the experiment with K562; 82.2 µM (inactive) in the experiment on SF-295; 43 µM (inactive) with UACC-62; 24.1 µM (inactive) in the experiment with SK-MEL-5; 32.2 µM (inactive) with DMS-114; 57.4 µM in the experiment on HCT-15. Also, the GI50 with HOP-62 is 37.4 µM (inactive); in the experiment on OVCAR-3, 27.4 µM (inactive).
With `NC1C/C(=N\O)c2c(I)sc(I)c21` (centres undefined), the GI50 was 15.7 µM (inactive) in the experiment on IGROV-1; 6.08 µM (inactive) in the experiment with SF-539; 16 µM (inactive) in the experiment with UACC-257; 17.7 µM (inactive) in the experiment on SF-268; 21.3 µM (inactive) in the experiment with RXF 393; 18.9 µM (inactive) with SNB-75. The GI50 in the experiment on MDA-MB-231 is 21.3 µM (inactive); in the experiment with K562 it was 8.04 µM (inactive); with CAKI-1, 15.2 µM (inactive); in the experiment on HOP-92 it was 17.1 µM (inactive); with SF-295, 17.2 µM (inactive); in the experiment with UACC-62, 17.3 µM (inactive). Further, the GI50 with SK-MEL-5 is 14.8 µM (inactive); in the experiment with KM12 it was 13.1 µM (inactive); in the experiment with PC-3, 17.1 µM (inactive); in the experiment with HCT-15 it was 13.4 µM; in the experiment with HOP-62 it was 18.2 µM (inactive); with Hs-578T, 19.8 µM (inactive). Further, the GI50 in the experiment on OVCAR-3 is 15.8 µM (inactive).
Take `COc1ccc(C(=O)C(C(=O)CCC(=O)Nc2cccc(C(F)(F)F)c2)c2ccccc2)cc1` (centres undefined): the GI50 with IGROV-1 is > 100 µM (inactive); with SF-539 it was > 100 µM (inactive); in the experiment on UACC-257, 62.7 µM (inactive); in the experiment with SF-268, > 100 µM (inactive); in the experiment on SNB-75, > 100 µM (inactive); in the experiment with K562, 54 µM (inactive). Also, the GI50 in the experiment with CAKI-1 is > 100 µM (inactive); with HOP-92, 53.6 µM (inactive); in the experiment on SF-295 it was 93.5 µM (inactive); with UACC-62, 91.8 µM (inactive); with SK-MEL-5 it was 33.2 µM (inactive); in the experiment on KM12 it was > 100 µM (inactive). Further, the GI50 is 36.2 µM (inactive) with DMS-114, 78.5 µM in the experiment with HCT-15, > 100 µM (inactive) with HOP-62 and 80 µM (inactive) with OVCAR-3.
For the compound `OCCNc1nc2c(N3CCCC3)nc(N3CCNCC3)nc2nc1NCc1ccccc1`, the GI50 with IGROV-1 was 11.9 µM (inactive); with SF-539, 16.3 µM (inactive); in the experiment on UACC-257, 17.3 µM (inactive); in the experiment with SF-268 it was 16.9 µM (inactive); with RXF 393 it was 11.3 µM (inactive); with SNB-75, 13.3 µM (inactive). Also, the GI50 with MDA-MB-231 is 15.7 µM (inactive); in the experiment with K562, 14 µM (inactive); in the experiment with CAKI-1, 16.2 µM (inactive); with HOP-92, 7.8 µM (inactive); in the experiment with SF-295, 17.6 µM (inactive); with UACC-62, 17.3 µM (inactive). The GI50 in the experiment with SK-MEL-5 was 12.6 µM (inactive); in the experiment on KM12, 11.9 µM (inactive); in the experiment with PC-3 it was 16.9 µM (inactive); in the experiment with HCT-15, 16.4 µM; in the experiment on HOP-62 it was 2.63 µM (inactive); with Hs-578T it was 20.3 µM (inactive). Besides, the GI50 in the experiment with OVCAR-3 was 4.92 µM (inactive).
`CC(=O)N/C(=C\c1ccccc1/C=C(\NC(C)=O)c1nc2cc(C)c(C)cc2[nH]1)c1nc2cc(C)c(C)cc2[nH]1`: the GI50 in the experiment on IGROV-1 was 26.5 µM (inactive); in the experiment on SF-539, 19.7 µM (inactive); in the experiment with SF-268, 24.1 µM (inactive); in the experiment on SNB-75, 13.7 µM (inactive); in the experiment with K562, 28.6 µM (inactive); with CAKI-1, 11.5 µM (inactive). Besides, the GI50 is 8.36 µM (inactive) with HOP-92; 15.6 µM (inactive) in the experiment on UACC-62; 17.1 µM (inactive) in the experiment on SK-MEL-5; 11.8 µM (inactive) with KM12; 0.23 µM (active) in the experiment on DMS-114; more than 10 µM in the experiment with HCT-15. Moreover, the GI50 in the experiment with HOP-62 is 14.2 µM (inactive); in the experiment on OVCAR-3 it was 3.73 µM (inactive).
On to `CC1(O)C=CC2CCC1C2O` (centres undefined), for which the GI50 is > 100 µM (inactive) in the experiment with IGROV-1; > 100 µM (inactive) in the experiment on SF-539; > 100 µM (inactive) in the experiment with UACC-257; 29.3 µM (inactive) with SF-268; 87.5 µM (inactive) in the experiment with RXF 393; > 100 µM (inactive) in the experiment with SNB-75. Also, the GI50 in the experiment with K562, in the experiment with CAKI-1, in the experiment on SF-295, in the experiment with UACC-62, in the experiment with SK-MEL-5 and in the experiment with KM12 was > 100 µM (inactive) throughout. In addition, the GI50 in the experiment with DMS-114 is 17.7 µM (inactive); in the experiment on HCT-15, more than 100 µM; in the experiment with HOP-62, > 100 µM (inactive); in the experiment with OVCAR-3, > 100 µM (inactive).
